Experimental data: paper PMC5762315, “Inhibition of polo-like kinase 4 (PLK4): a new therapeutic option for rhabdoid tumors and pediatric medulloblastoma” (Oncotarget, 2017)
Several values for one entry are separate records, joined by “and”; a condition that tells them apart may be missing. Equal entries are not always repeated.

Tests used:
Assay in all cases: biochemical
Format in all cases: biochemical
[1] = target: various kinases (Homo sapiens, UniProt P21709); settings: EPHA1
[2] = target: various kinases (Homo sapiens, UniProt P00533, G719C); settings: EGFR (ErbB1) G719C
[3] = target: various kinases (Homo sapiens, UniProt P10721, V559D/V654A); settings: KIT V559D V654A
[4] = target: various kinases (Homo sapiens, UniProt P31751); settings: AKT2 (PKB beta)
[5] = target: various kinases (Homo sapiens, UniProt P21802); settings: FGFR2
Chain of various kinases (Homo sapiens, UniProt P21802) (P21802 22-821): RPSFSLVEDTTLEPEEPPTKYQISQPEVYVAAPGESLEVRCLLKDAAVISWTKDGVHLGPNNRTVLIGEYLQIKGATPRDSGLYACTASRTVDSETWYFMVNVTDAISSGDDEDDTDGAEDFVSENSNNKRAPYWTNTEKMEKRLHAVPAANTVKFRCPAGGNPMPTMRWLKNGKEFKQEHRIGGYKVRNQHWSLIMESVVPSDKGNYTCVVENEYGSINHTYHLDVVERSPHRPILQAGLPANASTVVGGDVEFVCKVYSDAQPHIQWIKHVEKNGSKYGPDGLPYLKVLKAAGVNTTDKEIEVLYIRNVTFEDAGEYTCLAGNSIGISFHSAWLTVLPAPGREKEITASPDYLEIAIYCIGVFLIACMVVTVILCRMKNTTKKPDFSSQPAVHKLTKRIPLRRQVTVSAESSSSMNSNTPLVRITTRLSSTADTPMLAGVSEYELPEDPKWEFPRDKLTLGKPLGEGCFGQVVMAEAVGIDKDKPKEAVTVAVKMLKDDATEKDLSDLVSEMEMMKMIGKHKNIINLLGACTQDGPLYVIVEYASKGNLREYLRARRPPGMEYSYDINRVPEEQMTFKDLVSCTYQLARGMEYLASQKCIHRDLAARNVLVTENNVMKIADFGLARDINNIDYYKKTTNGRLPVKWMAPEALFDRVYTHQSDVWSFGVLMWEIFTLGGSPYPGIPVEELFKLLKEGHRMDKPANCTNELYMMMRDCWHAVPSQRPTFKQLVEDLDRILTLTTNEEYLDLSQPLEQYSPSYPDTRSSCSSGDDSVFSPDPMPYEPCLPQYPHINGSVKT

[6] = target: T1, various kinases (Homo sapiens, UniProt Q05513); settings: kinase PRKCZ (PKC zeta); ZLYTE
T1 sequence (Q05513 1-592): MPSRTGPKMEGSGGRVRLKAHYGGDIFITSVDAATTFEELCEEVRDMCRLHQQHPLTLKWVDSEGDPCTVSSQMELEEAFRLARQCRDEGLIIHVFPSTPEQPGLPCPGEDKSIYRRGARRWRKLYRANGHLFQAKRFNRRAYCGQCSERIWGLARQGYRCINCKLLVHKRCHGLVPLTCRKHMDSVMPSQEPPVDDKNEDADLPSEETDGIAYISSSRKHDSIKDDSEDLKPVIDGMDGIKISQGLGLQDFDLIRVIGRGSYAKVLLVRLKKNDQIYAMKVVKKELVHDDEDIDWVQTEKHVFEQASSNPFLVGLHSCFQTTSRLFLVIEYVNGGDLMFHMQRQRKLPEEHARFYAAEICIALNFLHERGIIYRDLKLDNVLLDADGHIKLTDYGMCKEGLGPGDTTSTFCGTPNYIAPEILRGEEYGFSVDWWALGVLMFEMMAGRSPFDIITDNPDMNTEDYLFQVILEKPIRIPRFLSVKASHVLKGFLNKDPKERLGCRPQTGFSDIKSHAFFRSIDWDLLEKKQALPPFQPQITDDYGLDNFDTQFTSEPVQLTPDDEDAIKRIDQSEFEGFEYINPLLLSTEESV

[7] = target: T2, various kinases (Homo sapiens, UniProt P51817); settings: kinase PRKX; ZLYTE
T2 sequence (P51817 1-358): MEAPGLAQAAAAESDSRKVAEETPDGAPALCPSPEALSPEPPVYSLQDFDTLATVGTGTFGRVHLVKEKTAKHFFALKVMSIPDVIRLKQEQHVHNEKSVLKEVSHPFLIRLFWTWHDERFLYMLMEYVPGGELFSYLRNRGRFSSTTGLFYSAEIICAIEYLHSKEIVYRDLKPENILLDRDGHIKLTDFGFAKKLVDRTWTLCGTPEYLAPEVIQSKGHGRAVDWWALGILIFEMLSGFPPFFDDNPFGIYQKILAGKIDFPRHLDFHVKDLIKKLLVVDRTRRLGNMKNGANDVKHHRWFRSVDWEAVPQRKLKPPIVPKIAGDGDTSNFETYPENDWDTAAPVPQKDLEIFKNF

[8] = target: various kinases (Homo sapiens, UniProt Q86Z02); settings: HIPK1 (Myak)
[9] = target: various kinases (Homo sapiens, UniProt O96017); settings: CHEK2 (CHK2)
Chain of various kinases (Homo sapiens, UniProt O96017) (O96017 whole entry): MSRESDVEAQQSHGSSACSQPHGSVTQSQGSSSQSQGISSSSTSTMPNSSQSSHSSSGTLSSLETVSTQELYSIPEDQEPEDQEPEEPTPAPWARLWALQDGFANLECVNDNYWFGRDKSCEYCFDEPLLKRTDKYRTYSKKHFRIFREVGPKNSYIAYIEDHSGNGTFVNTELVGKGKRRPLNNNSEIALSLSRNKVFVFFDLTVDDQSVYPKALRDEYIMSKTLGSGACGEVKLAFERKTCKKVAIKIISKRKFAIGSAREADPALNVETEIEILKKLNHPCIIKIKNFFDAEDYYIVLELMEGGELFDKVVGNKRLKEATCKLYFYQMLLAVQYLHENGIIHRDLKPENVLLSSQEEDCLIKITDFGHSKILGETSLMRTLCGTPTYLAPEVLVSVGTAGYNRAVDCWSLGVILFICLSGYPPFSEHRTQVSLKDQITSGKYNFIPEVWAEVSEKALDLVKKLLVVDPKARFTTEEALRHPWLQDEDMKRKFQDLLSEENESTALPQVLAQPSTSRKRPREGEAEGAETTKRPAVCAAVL

[10] = target: various kinases (Homo sapiens, UniProt P04626); settings: ERBB2 (HER2)
Chain of various kinases (Homo sapiens, UniProt P04626) (P04626 23-1255): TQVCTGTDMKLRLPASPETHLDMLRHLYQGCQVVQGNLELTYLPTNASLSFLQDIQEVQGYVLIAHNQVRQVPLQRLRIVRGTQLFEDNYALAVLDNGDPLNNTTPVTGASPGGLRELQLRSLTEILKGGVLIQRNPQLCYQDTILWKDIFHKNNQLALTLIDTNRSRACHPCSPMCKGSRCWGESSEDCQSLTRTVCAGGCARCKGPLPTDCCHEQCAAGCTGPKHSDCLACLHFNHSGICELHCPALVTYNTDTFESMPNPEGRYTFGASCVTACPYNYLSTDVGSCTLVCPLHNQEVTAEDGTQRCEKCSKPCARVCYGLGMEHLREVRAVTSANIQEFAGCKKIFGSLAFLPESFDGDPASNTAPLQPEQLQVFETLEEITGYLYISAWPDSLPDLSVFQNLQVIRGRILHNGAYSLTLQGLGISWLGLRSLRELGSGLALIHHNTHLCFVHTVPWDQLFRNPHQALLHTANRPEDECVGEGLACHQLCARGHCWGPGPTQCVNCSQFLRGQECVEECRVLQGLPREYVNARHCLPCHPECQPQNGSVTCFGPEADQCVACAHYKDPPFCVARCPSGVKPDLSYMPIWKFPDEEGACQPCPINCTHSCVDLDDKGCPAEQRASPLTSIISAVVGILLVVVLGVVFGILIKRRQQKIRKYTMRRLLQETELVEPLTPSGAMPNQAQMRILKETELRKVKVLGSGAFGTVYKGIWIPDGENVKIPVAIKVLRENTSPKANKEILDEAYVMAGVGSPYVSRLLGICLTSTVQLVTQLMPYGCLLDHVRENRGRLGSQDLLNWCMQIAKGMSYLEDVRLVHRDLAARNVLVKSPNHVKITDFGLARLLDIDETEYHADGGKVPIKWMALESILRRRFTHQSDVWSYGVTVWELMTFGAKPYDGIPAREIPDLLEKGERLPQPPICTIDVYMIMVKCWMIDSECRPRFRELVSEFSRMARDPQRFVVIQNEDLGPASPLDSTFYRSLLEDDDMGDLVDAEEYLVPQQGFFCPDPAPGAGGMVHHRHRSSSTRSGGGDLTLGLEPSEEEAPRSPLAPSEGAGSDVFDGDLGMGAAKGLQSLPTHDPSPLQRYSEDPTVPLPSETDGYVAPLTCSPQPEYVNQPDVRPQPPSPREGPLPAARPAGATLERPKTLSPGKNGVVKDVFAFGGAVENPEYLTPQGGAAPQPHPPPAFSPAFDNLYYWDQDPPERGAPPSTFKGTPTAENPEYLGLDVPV

[11] = target: T3, various kinases (Homo sapiens, UniProt Q13470); settings: kinase TNK1; ZLYTE
T3 sequence (Q13470 1-666): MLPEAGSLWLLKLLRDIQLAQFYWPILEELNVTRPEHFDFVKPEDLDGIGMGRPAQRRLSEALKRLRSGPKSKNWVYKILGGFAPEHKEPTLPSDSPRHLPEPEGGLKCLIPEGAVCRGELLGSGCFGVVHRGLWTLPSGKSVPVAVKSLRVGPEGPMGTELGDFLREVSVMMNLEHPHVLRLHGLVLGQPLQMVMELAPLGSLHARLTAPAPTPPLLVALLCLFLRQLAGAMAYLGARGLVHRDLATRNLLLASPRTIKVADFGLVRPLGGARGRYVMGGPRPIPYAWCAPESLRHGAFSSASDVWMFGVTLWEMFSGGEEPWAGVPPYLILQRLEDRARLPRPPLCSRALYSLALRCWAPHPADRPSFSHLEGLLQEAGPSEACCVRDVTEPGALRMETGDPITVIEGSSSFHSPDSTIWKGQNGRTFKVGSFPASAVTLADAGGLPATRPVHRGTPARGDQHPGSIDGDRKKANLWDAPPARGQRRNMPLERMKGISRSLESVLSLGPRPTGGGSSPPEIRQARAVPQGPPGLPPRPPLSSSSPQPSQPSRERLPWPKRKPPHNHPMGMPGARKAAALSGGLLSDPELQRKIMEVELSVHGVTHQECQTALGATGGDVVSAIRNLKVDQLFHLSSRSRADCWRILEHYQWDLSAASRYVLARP

[12] = target: various kinases (Homo sapiens, UniProt Q9Y4K4); settings: MAP4K5 (KHS1)
[13] = target: various kinases (Homo sapiens, UniProt P07949, V804L); settings: kinase RET V804L; ZLYTE
Chain of various kinases (Homo sapiens, UniProt P07949, V804L) (P07949 29-1114 V804L): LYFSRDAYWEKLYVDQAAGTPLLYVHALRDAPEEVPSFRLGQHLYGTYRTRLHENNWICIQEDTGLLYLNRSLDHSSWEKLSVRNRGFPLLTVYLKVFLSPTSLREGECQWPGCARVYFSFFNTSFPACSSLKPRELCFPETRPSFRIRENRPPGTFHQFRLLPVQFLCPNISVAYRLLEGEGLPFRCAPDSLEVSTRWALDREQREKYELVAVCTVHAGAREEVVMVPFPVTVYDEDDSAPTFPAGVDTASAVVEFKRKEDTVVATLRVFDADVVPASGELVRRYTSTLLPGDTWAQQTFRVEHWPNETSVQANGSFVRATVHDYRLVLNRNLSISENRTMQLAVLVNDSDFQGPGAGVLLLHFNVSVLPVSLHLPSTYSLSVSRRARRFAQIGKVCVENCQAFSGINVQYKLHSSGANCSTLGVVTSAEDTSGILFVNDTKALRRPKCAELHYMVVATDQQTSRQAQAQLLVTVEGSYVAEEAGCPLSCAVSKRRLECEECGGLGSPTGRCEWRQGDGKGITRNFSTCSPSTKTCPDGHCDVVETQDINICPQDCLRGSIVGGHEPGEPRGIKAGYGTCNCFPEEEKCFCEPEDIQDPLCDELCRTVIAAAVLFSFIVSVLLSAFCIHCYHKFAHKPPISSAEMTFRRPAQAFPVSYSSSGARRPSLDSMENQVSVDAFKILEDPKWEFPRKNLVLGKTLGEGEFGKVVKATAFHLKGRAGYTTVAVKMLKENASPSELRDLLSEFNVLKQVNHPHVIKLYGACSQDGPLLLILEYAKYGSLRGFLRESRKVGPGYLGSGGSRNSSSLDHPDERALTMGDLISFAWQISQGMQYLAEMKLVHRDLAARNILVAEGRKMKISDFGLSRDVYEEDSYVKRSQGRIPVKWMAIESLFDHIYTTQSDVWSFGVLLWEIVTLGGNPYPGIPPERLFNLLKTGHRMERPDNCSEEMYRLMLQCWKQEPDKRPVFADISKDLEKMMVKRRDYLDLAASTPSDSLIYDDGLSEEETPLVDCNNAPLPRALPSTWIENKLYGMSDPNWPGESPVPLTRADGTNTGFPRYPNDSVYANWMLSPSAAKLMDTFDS

[14] = target: various kinases (Homo sapiens, UniProt Q9P289); settings: MST4
[15] = target: various kinases (Homo sapiens, UniProt Q5VT25); settings: CDC42 BPA (MRCKA)
[16] = target: various kinases (Homo sapiens, UniProt P29376); settings: LTK (TYK1)
[17] = target: various kinases (Homo sapiens, UniProt P08581); settings: MET (cMet)
[18] = target: various kinases (Homo sapiens, UniProt O00506); settings: kinase STK25 (YSK1); ZLYTE
Chain of various kinases (Homo sapiens, UniProt O00506) (O00506 whole entry): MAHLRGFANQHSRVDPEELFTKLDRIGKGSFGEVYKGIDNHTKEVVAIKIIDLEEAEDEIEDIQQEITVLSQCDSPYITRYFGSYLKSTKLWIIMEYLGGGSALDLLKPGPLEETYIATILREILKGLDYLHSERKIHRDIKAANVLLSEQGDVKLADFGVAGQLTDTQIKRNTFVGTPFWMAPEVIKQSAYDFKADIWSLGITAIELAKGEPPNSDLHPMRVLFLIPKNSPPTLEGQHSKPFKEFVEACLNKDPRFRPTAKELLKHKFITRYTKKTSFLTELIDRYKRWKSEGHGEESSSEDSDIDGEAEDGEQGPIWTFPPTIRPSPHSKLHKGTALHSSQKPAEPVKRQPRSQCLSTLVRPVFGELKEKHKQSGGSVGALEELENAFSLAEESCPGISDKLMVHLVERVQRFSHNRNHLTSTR
Wherever % Inhibition Average is given: test concentration or dose not given here.
Wherever % Inhibition Duplicate #1 is given: test concentration or dose not given here.
Wherever % Inhibition Duplicate #2 is given: test concentration or dose not given here.

Chain of various kinases (Homo sapiens, UniProt P21709) (P21709 26-976): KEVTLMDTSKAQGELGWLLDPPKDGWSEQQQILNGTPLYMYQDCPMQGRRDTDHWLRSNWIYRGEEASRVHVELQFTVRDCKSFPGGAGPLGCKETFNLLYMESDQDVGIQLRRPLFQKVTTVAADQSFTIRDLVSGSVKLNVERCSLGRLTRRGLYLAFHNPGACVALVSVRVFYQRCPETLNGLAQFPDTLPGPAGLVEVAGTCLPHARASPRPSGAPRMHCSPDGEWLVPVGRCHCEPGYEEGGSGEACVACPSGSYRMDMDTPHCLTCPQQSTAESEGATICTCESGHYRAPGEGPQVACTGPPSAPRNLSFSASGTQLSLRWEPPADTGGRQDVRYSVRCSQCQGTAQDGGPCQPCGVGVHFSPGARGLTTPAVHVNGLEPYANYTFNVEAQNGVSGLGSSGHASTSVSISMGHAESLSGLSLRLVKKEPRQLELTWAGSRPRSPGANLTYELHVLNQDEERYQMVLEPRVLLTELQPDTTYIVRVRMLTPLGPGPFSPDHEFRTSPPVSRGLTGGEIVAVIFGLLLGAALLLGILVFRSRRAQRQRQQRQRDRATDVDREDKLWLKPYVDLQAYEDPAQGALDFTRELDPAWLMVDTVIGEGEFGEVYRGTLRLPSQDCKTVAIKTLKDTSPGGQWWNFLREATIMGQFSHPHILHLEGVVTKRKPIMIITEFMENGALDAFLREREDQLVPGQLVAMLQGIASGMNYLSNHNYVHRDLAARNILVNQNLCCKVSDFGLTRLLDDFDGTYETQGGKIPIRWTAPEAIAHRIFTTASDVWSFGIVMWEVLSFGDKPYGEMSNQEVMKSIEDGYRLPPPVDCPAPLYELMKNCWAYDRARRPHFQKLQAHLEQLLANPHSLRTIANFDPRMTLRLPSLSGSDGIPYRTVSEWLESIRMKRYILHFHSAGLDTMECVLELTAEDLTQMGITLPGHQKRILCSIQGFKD

## COc1ccc2c(c1)[C@]1(C[C@H]1c1ccc3c(/C=C/c4ccc(CN5C[C@@H](C)O[C@@H](C)C5)cc4)n[nH]c3c1)C(=O)N2 [CFI-400945]
[1]
  % Inhibition: 20% and 26%
[2]
  % Inhibition: 3% and 2%
[3]
  % Inhibition: 5% and 6%
[4]
  % Inhibition: 3%
[5]
  % Inhibition: 55% and 58%
[6]
  % Inhibition Average: -11%
  % Inhibition Duplicate #1: -22%
  % Inhibition Duplicate #2: 0%
[7]
  % Inhibition Average: 5%
  % Inhibition Duplicate #1: 6%
  % Inhibition Duplicate #2: 4%
[8]
  % Inhibition: 0%
[9]
  % Inhibition: 3% and 2%
[10]
  % Inhibition: -2% and 1%
[11]
  % Inhibition Average: 30%
  % Inhibition Duplicate #1: 26%
  % Inhibition Duplicate #2: 34%
[12]
  % Inhibition: 12% and 23%
[13]
  % Inhibition Average: 17%
  % Inhibition Duplicate #1: 14%
  % Inhibition Duplicate #2: 19%
[14]
  % Inhibition: 14% and 10%
[15]
  % Inhibition: 3% and 10%
[16]
  % Inhibition: 68%
[17]
  % Inhibition: 16% and 14%
[18]
  % Inhibition Average: -3%
  % Inhibition Duplicate #1: 0%
  % Inhibition Duplicate #2: -6%
